Structures can show the parent of a compound that is named as a salt.
tested on: MT4; assay: Potency against […] nucleoside reverse transcriptor was determined in MT-4 cells; type: functional, cell-based; conditions: Homo sapiens

First: CCOC(=O)c1cccn1S(=O)(=O)c1cc(Cl)ccc1N
Second: Cc1ncc([N+](=O)[O-])n1CCOC(c1ccccc1)c1ccccc1
The IC50 of the first is 8-fold higher: 400 nM for the first, 50 nM for the second. The second is the more potent here.

Compared with `Nc1[nH]cnc2ncnc1-2` [ADENINE], `Cc1ccnc2c1NC(=O)c1cccnc1N2C1CC1` [NEVIRAPINE] is 20-fold lower in IC50: 12000 nM for the first, 600 nM for the second.

Going from `O=C1Nc2ccc(Cl)cc2[C@@](C#CC2CC2)(C(F)(F)F)O1` [EFAVIRENZ] to `Nc1ccn([C@H]2CC[C@@H](CO)O2)c(=O)n1` [ZALCITABINE], the IC50 rises from 40 nM to 1600 nM (40-fold).

First: S=C(NCCc1ccccn1)Nc1ccc(Br)cn1 [TROVIRDINE HYDROCHLORIDE]
Second: Cc1cn([C@H]2C[C@H](N=[N+]=[N-])[C@@H](CO)O2)c(=O)[nH]c1=O [ZIDOVUDINE]
The IC50 of the first is 20-fold higher: 800 nM for the first, 40 nM for the second.

Source: ChEMBL document CHEMBL1146751, “Threshold interaction energy of NRTI's (2'-deoxy 3'-substituted nucleosidic analogs of reverse transcriptase inhibitors) to undergo competitive inhibition” (Bioorg Med Chem Lett, 2004)
